Measurements taken from publication PMC8533299, “Synthesis, In Silico Study, and Anti-Cancer Activity of Thiosemicarbazone Derivatives” (Biomedicines, 2021).
Converted amounts (≈) assume the structure as drawn. “And” between values parts separate entries of the source, which are not always exact repeats. Identical values can stand only once.

Columns and labels:
[1] = system: gene expression in MCF-7 human breast cancer cells; test: RT-qPCR gene expression in MCF-7 cells; assay type: cell-based; settings: for BCl2 Treated (RQ value) / BRCA1 Treated (RQ value) / BRCA2 Treated (RQ value) / Bax Treated (RQ value) / Caspase-3 Treated (RQ value) / Dmp1 Treated (RQ value) / ER Treated (RQ value) / Hdm2 Treated (RQ value) / Myc Treated (RQ value) / PKC Treated (RQ value) / PR Treated (RQ value) / PTEN Treated (RQ value) / RAS Treated (RQ value) / p19 Arf Treated (RQ value) / p21 Treated (RQ value) / p53 Treated (RQ value) / pRB Treated (RQ value): MCF-7 cells treated, GAPDH housekeeping gene
Method: Total mRNA was isolated and extracted by Trizol reagent as described in an earlier method. RevertAid First Strand cDNA synthesis kit (Thermo Fisher Scientific, Waltham, MA, USA) was used to synthesize cDNA in a total reaction volume of 20 μL containing oligo-dT primers, RiboLock RNase inhibitor, and reverse transcriptase. Gene-specific primers were used to amplify cDNAs in RT-qPCR machine (Applied Biosystems, Waltham, MA, USA).

[2] = MTT cytotoxicity test on NIH-3T3 cells; assay type: cell-based, Mouse; settings: mouse, NIH/3T3 fibroblast cells
Method: (§1) The in vitro anticancer activities of the synthesized compounds were conducted using different cancerous and non-cancerous cell lines viz B16-F0 (Mouse melanoma), mouse Ehrlich Ascites Carcinoma (EAC), MCF-7 (Human breast cancer), MCF-10A (Human breast epithelial cells), and NIH/3T3 (Mouse fibroblast cells). All cell lines were procured from the National Centre for Cell Science, Pune, India. The procured cells were cultured in a six-well culture plate with Dulbecco’s Modified Eagle’s Medium (DMEM) supplemented with 10% fetal bovine serum in a humid CO2 incubator with 5% carbon dioxide at 37 °C.
(§2) The anti-cancer effect and cytotoxicity of both 3-MBTSc and 4-NBTSc compounds were evaluated against different cancerous (MCF-7, EAC, B16-F0 cells) and noncancerous cells (MCF-10A, NIH-3T3 cells) using MTT test. In brief, the stock solutions of both the tested compounds were prepared by dissolving 1 mg of each compound in 1 mL of DMSO separately. Then, four different concentrations (5, 10, 12, and 20 µg/mL) of both compounds were used during the test along with the negative control. Also, 10 μg/mL of doxorubicin (Dox) was used as the positive control during the experiment. Both untreated and treated cells were incubated for next 24 and 48 h. Then, all the steps during the whole experiment were carried out by our earlier reported procedure. Later, the absorbance values were measured by an ELISA reader (Biorad, Hercules, CA, USA) at 570 nm wavelength using secondary wavelength as a reference at 620 nm and the percentages of cell viability was calculated using the following formula [59, 60, 61]. Cell viability (%)= Mean absorbance of treated cells/Mean absorbance of untreated cells × 100

[3] = system: NIH/3T3 (Mouse fibroblast cells); test: MTT cytotoxicity test on NIH-3T3 cells; assay type: cell-based; settings: 48 h
Method: as §1, §2

[4] = system: MCF-7 (Human breast cancer); test: MTT test on MCF-7 cells; assay type: cell-based; settings: MCF7, till 48 h
Method: as §1, §2
Based on the cell viability data, the IC50 values of both compounds were calculated on different cancer cells by plotting their corresponding dose-responsive graphs.
The obtained data were statistically analyzed. The descriptive analysis was done and the IC50 values were calculated by fitting the sigmoidal dose responsive graph using GraphPad Prism (GraphPad Software, Inc., La Jolla, CA, USA). […]

[5] = Solubility of the obtained compound in solvents; assay type: physicochemical
Method: 3-Methoxybenzaldehyde thiosemicarbazone (C9H11N3OS; (2E)-2-(3-methoxybenzylidene) hydrazine carbothioamide) (3MBTSc) was prepared by using the previous procedure with slight modifications. It was prepared by refluxing a mixture of thiosemicarbazide ([…], 0.01 mmol) and 3-Methoxybenzaldehyde (2.67 mL, 0.01 mmol) in a mixture of 20 mL distilled water and 20 mL methanol as the solvent medium in the presence of glacial acetic acid (2–3 mL). The reaction mixture was refluxed for about 3–4 h. After cooling, the yellow crystalline solid separated was filtered, washed, and dried. The yield of the compound was 2.16 g and the obtained compound was insoluble in CHCl3, CCl4, CH3CN, H2O, ethanol, and methanol but it was soluble in DMSO and DHF/THF. The following characterization was carried out to confirm the synthesis of 3-Methoxybenzaldehyde thiosemicarbazone by FTIR (cm^−1): v(NH2) 3403s; 3287s; v(-NH) 3150s; 1599s v(C=N); v(C=S) 1246s, 836s, ^1H-NMR (DMSO-d^6, ppm): 11.40 (s, 1H); 8.19 (s, 2H); 6.95–7.44 (m, ar-H); 3.80 (s, 3H), and ^13C-NMR (DMSO-d^6, ppm): 178.9 (s, C=S), 55.76 (s, OCH3), 111-143 (m-Ph-C), 159.6 (s, C=N).
4-Nitrobenzaldehyde thiosemicarbazone ((2E)-2-(4-nitrobenzylidene) hydrazine carbothioamide) (4NBTSc) was synthesized using earlier reported methods with slight modifications. A mixture of 1.51 g (0.01 mmol) of 4-Nitrobenzaldehyde, and 0.914 g (0.01 mmol) thiosemicarbazide was stirred for 2 h using 15 mL of methanol and 15 mL of distilled water as a solvent medium. The resulting yellow solution was allowed to cool. Then, a yellow crystalline solid separated was filtered, washed with diethyl ether and dried. The yield of the compound was 2.30 g and the obtained compound was insoluble in CHCl3, CCl4, CH3CN, H2O, ethanol, and methanol but it was soluble in DMSO and DHF/THF. The following characterization was carried out to confirm the synthesis of 4-Nitrobenzaldehyde thiosemicarbazone by FTIR (cm^−1): v(NH2) 3499m; 3373s; v(-NH) 3197s; 1588s; 1343s (v(NO2); v(C=N); v(C=S) 1137s, 750s, ^1H-NMR (DMSO-d^6, ppm): 11.66 (s, 1H); 8.38 (s, 2H); 8.32–8.03 (m, ar-H), and ^13C-NMR (DMSO-d^6, ppm): 179 (s, C=S), 128-141 (m-Ph-C), 148.06(s, C=N), 124.23 (s, CH).

[6] = MCF-7 cells, difference of RQ values

Compound | BCl2 Treated (RQ value) [1] | BRCA1 Treated (RQ value) [1] | BRCA2 Treated (RQ value) [1] | Bax Treated (RQ value) [1] | Caspase-3 Treated (RQ value) [1] | Dmp1 Treated (RQ value) [1] | ER Treated (RQ value) [1] | Hdm2 Treated (RQ value) [1] | Myc Treated (RQ value) [1] | PKC Treated (RQ value) [1] | PR Treated (RQ value) [1] | PTEN Treated (RQ value) [1] | RAS Treated (RQ value) [1] | p19 Arf Treated (RQ value) [1] | p21 Treated (RQ value) [1] | p53 Treated (RQ value) [1] | pRB Treated (RQ value) [1] | BCl2 Fold Change (MCF 7 treated-MCF 7 untreated) [1, 6] | BRCA1 Fold Change (MCF 7 treated-MCF 7 untreated) [1, 6] | BRCA2 Fold Change (MCF 7 treated-MCF 7 untreated) [1, 6] | also measured
NC(=S)N[N-][CH+]c1ccc([N+](=O)[O-])cc1 [4-NBTSc, 4-Nitrobenzaldehyde thiosemicarbazone] | 3.11 ± 0.01 | 2.86 ± 0.455 | 4.13 ± 0.02 | 1.825 ± 0.025 | 1.85 ± 0.04 | 2.19 ± 0.02 | 2.14 ± 0.03 | 3.92 ± 0.045 | 2.35 ± 0.025 | 6.09 ± 0.02 | 1.15 ± 0.02 | 5.09 ± 0.02 | 3.94 ± 0.02 | 0.995 ± 0.025 | 4.12 ± 1.51 | 4.185 ± 0.025 | 3.81 ± 0.02 | 1.02 fold | 1.06 fold | 2.19 fold | Bax Fold Change (MCF 7 treated-MCF 7 untreated) [1, 6]: 1.1 fold; Caspase-3 Fold Change (MCF 7 treated-MCF 7 untreated) [1, 6]: 1.25 fold; Dmp1 Fold Change (MCF 7 treated-MCF 7 untreated) [1, 6]: -0.3 fold; ER Fold Change (MCF 7 treated-MCF 7 untreated) [1, 6]: -2.7 fold; Hdm2 Fold Change (MCF 7 treated-MCF 7 untreated) [1, 6]: -3.32 fold; Myc Fold Change (MCF 7 treated-MCF 7 untreated) [1, 6]: -5.1 fold; PR Fold Change (MCF 7 treated-MCF 7 untreated) [1, 6]: -0.05 fold; PTEN Fold Change (MCF 7 treated-MCF 7 untreated) [1, 6]: 2.945 fold and 2.95 fold; p19 Arf Fold Change (MCF 7 treated-MCF 7 untreated) [1, 6]: -0.34 fold; p21 Fold Change (MCF 7 treated-MCF 7 untreated) [1, 6]: 1.93 fold; p53 Fold Change (MCF 7 treated-MCF 7 untreated) [1, 6]: 2.025 fold; pRB Fold Change (MCF 7 treated-MCF 7 untreated) [1, 6]: 2.21 fold; viability at 48 h [2]: > 80%; toxicity [3]: less than 20%; IC50 [4]: 7.102 ± 0.01 µg/mL (≈ 31.7 µM); solubility in CHCl3, CCl4, CH3CN, H2O, ethanol, and methanol [5]: insoluble; solubility in DMSO and DHF/THF [5]: soluble
COc1cccc(C=NNC(N)=S)c1 [3-MBTSc, 3-Methoxybenzaldehyde thiosemicarbazone] | 2.375 ± 0.025 | 7.13 ± 0.01 | 1.235 ± 0.005 | 2.125 ± 0.025 | 2.13 ± 0.01 | 2.1 ± 0.03 | 3.15 ± 0.03 | 5.26 ± 0.045 | 3.43 ± 0.015 | 5.455 ± 0.015 | 1.23 ± 0.02 | 3.78 ± 0.02 | 3.905 ± 0.035 | 4.575 ± 0.055 | 3.125 ± 0.025 | 5.185 ± 0.015 | 3.11 ± 0.01 | 0.285 fold | 5.33 fold | -0.7 fold | Bax Fold Change (MCF 7 treated-MCF 7 untreated) [1, 6]: 1.4 fold; Caspase-3 Fold Change (MCF 7 treated-MCF 7 untreated) [1, 6]: 1.53 fold; Hdm2 Fold Change (MCF 7 treated-MCF 7 untreated) [1, 6]: -1.98 fold; Myc Fold Change (MCF 7 treated-MCF 7 untreated) [1, 6]: -4.02 fold; PKC Fold Change (MCF 7 treated-MCF 7 untreated) [1, 6]: -7.64 fold; PR Fold Change (MCF 7 treated-MCF 7 untreated) [1, 6]: 0.035 fold; PTEN Fold Change (MCF 7 treated-MCF 7 untreated) [1, 6]: 1.635 fold; RAS Fold Change (MCF 7 treated-MCF 7 untreated) [1, 6]: −5.92 fold; p19 Arf Fold Change (MCF 7 treated-MCF 7 untreated) [1, 6]: 3.24 fold; p21 Fold Change (MCF 7 treated-MCF 7 untreated) [1, 6]: 0.935 fold; p53 Fold Change (MCF 7 treated-MCF 7 untreated) [1, 6]: 3.025 fold; pRB Fold Change (MCF 7 treated-MCF 7 untreated) [1, 6]: 1.51 fold; viability at 48 h [2]: > 80%; toxicity [3]: less than 20%; IC50 [4]: 2.821 ± 0.008 µg/mL (≈ 13.5 µM); solubility in CHCl3, CCl4, CH3CN, H2O, ethanol, and methanol [5]: insoluble; solubility in DMSO and DHF/THF [5]: soluble
